Results taken from patent US8173771B2, “Humanin receptor or humanin-like polypeptide receptor” (Keio Univeristy, priority 2005, dated 2012).
Peptide text beside a SMILES is read from it.

Key:
[1] = test system: HN receptor (HNR; CNTF-R/WSX-1/gp130) on F11 cells; experiment: Immunofluorescence-based binding assay (2): biotin-HN / biotin-HNG binding to F11 cells; parameters: species or system mouse
Experimental: A) F11 cells were seeded on 96-well plates coated with poly-L-lysine (7×10^3 cells/well). An indicated amount of biotin-HN or biotin-HNG was added to the cells with or without 10 μM of unlabelled HNG or HNA, followed by a binding assay based on immunofluorescence reaction (2) (left panels). On the other hand, F11 cells were transfected with 0.5 μg of pcDNA3.1/GS-human CNTF-R, pEF1/MycHis-human WSX-1, and 1.0 μg of pCAG-human gp130. At 24 hrs after the transfection, the cells were re-seeded on 96-well plates coated with poly-L-lysine (7×10^3 cells/well). After 36 hrs the re-seeding, an indicated amount of biotin-HN or biotin-HNG was added to the cells with or without 10 μM of unlabeled HNG or HNA, followed by a binding assay based on immunofluorescence reaction (2) (right panels).
B) F11 cells were transfected with 0.5 μg of pRNA-U1.6/Shuttle vector, pRNA-U6.1/Shuttle-WSX-1 siRNA, pRNA-U6.1/Shuttle-CNTF-R siRNA, both pRNA-U6.1/Shuttle-WSX-1 siRNA and pRNA-U6.1/Shuttle-CNTF-R siRNA (0.5 μg each), pRNA-U6.1/Shuttle-FPR2 siRNA or pRNA-U6.1/Shuttle-LIFR siRNA. The total amount of vectors was adjusted to be 1.0 μg by including a backbone vector. At 24 hrs after the transfection, an indicated amount of biotin-HNG was added with or without unlabeled HNG, followed by a binding assay based on immunofluorescence reaction (2) at 72 hrs after the transfection.
E) F11 cells on 6-well plate (7×10^4 cells/well) were transfected with 1.0 μg of pRNA-U6.1/Shuttle vector, pRNA-U6.1/Shuttle-Bax siRNA, or both pRNA-U6.1/Shuttle-WSX-1 siRNA and pRNA-U6.1/Shuttle-CNTF-R siRNA (0.5 μg each). At 72 hrs after the transfection, the cells were added with an indicated amount of biotin-HN with or without unlabeled HN or HNA (100 μM) and subjected to an HN-binding assay based on immunofluorescence.
F11 cells (7×10^4/well in 6-well plates) were replated into 96-well plates (7×10^3 cells/well) at 24 hrs after transfection with indicated amounts of the plasmids encoding mycHis-WSX or V5-CNTF-R, and with PCAG-human gp130 if required. At 36 hrs after transfection, the cells were added with biotin-labeled HN or HNG of indicated concentrations in the presence or the absence of HNG (S14G-HN) or HNA (C8A-HN) of indicated concentrations (Hashimoto et al., 2001 a). After 6 hrs incubation, they were fixed with 4% paraformaldehyde in PBS for 30 min. After washing with PBS, cells were stained with FITC-conjugated avidin (Molecularprobe, Eugene, Oreg., USA). Immunofluorescence intensity was measured (excitation=485 nm, emission=535 nm) with a spectrofluorometer (Wallac1420 ARVOsx Multi Label Counter). Immunohistochemical analysis was done with a laser-scanning, confocal microscope LSM (Carl Zeiss, Germany).

[2] = target: T1, IL-6 receptor (Rattus norvegicus, UniProt P22273); experiment: In vitro pull-down assay with HN- or HNA-conjugated Sepharose 4B; type: binding; conditions: lysates of F11 cells overexpressing IL-6R
T1 construct: V6 (so in the source); probably V5); host or cells: F11 cells (lysate)
T1 sequence (P22273 20-462): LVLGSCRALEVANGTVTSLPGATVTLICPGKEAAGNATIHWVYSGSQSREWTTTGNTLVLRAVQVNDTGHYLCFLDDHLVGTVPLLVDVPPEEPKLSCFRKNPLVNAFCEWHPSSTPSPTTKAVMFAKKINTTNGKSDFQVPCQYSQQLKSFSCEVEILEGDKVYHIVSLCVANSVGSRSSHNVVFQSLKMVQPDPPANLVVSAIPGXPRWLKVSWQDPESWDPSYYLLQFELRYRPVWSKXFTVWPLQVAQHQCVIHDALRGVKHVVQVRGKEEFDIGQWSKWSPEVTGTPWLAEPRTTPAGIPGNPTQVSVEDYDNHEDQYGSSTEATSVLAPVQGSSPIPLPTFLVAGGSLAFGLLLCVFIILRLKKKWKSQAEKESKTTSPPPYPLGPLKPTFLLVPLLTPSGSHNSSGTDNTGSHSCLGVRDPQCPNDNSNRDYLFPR
Source text: C) The photos show the results of in vitro pull down assay using HN- or HNA-conjugated Sepharose 4B bead. WSX-1, CNTF-R, and […] were over-expressed in F11 cells and the pull down assay was made using the above 4B bead. Immunoblot analysis was done using PO4 antibody against Humanin (lower panes). HN or HNA comprised in the above Sepharose 4B bead was compared with synthesized HN peptide (50 pmol) as a positive control.
F11 cells (7×10^4/well in 6-well plates) were transfected with the plasmids encoding mycHis-WSX-1, V5-CNTF-R or rat IL-6R (V6 tagged). At 48 hrs after transfection, the cells were harvested for pull-down assays with HN or HNA-conjugated Sepharose 4B. For conjugation of […] or HNA with Sepharose 4B, 3 ml of CNBr-activated Sepharose 4B was incubated with 0.5 mg of HN or HNA in a coupling buffer (0.1M NaHCO3 0.5M NaCl, pH8.3) overnight at 4° C. The beads were then reacted with a blocking buffer (0.2M glycine, pH 8.0) for 2 hrs at a room temperature, washed with the coupling buffer and stored at 4° C. for use in pull-down assay. For each pull-down assay, 20 μl of 1:1 slurry of Sepharose was used for 100 μl of the cell lysate.

| Molecule | binding to F11 cells ([1]; expression of endogenous CNTF-R and WSX-1 simultaneously decreased by siRNA) | binding to F11 cells ([1]; expression of endogenous CNTF-R or WSX-1 decreased by siRNA) | binding in pull-down to IL-6 receptor [2] |
| --- | --- | --- | --- |
| CC[C@H](C)[C@H](NC(=O)[C@H](CCC(=O)O)NC(=O)CNC(=O)[C@@H](NC(=O)[C@H](CC(C)C)NC(=O)[C@H](CC(C)C)NC(=O)[C@H](CC(C)C)NC(=O)[C@H](CC(C)C)NC(=O)[C@H](CS)NC(=O)[C@H](CO)NC(=O)[C@H](Cc1ccccc1)NC(=O)CNC(=O)[C@H](CCCNC(=N)N)NC(=O)[C@@H]1CCCN1C(=O)[C@H](C)NC(=O)[C@@H](N)CCSC)[C@@H](C)O)C(=O)N[C@@H](CC(=O)O)C(=O)N[C@@H](CC(C)C)C(=O)N1CCC[C@H]1C(=O)N[C@H](C(=O)N[C@@H](CCCCN)C(=O)N[C@@H](CCCNC(=N)N)C(=O)N[C@@H](CCCNC(=N)N)C(=O)N[C@@H](C)C(=O)O)C(C)C [HNG, S14 G-Humanin] (H-MAPRGFSCLLLLTGEIDLPVKRRA-OH; N-terminus and C-terminus assumed) | almost completely inhibited | significantly decreased |  |
| C8A-Humanin (MAPRGFSALLLLTSEIDLPVKRRA) [HNA] |  |  | did not bind |
